Assay [1] has as its system Primary cultures of neonatal rat cortex. Format: cell-based.
The test system is the same in assay [2]. Format: cell-based. This is another data set of the same source.

Like-named read-outs stand apart in the source and are kept apart here.

As to `Nc1ccncc1` [4-AP, 4-aminopyridine], the “effect on intracellular calcium” value in assay [1] (depolarized conditions (aconitine), substance alone) is “induces an increase in intracellular calcium”. For the same compound, in assay [2], the “effect on intracellular calcium” value was “significant effect” and the “potency in non-depolarized compared with depolarized cultures” value is “slightly less potent”.
On to dendrotoxin, for which, in assay [1], the “effect on intracellular calcium” value is recorded as “caused an increase in intracellular calcium”.

The values are drawn from patent US20060014673A1 (priority 1998, published 2006).
